Experiments:
Assay in all cases: NADH oxidation at […] nm, initial rates
Format in all cases: biochemical
[1] = biological target: T1, Hgdh (Acidaminococcus fermentans, UniProt D2RJU7); conditions: 0.25 mM NADH, 50 mM phosphate pH 8, 25 °C; apparent (Km of NADH not determined)
T1 construct: full length, codon-optimized, expressed in E. coli BL21(DE3) from pET-28b, extra Ala after start Met, C-terminal thrombin site and His tag (kept), homodimer of 75 kDa

[2] = biological target: T2, Hgdh (Acidaminococcus fermentans, UniProt D2RJU7, V11K/V11M/A206V/A214V/E304K, form not given); conditions: 0.25 mM NADH, 50 mM phosphate pH 8, 25 °C, apparent, residue 11 contradictory: V11K, A2 is the extra cloning Ala
T2 construct: full length, codon-optimized, expressed in E. coli BL21(DE3) from pET-28b, extra Ala after start Met, C-terminal thrombin site and His tag (kept), homodimer of 75 kDa

[3] = biological target: T3, Hgdh (Acidaminococcus fermentans, UniProt D2RJU7, V11K/V11M/A206V/A214V/V312I, form not given); conditions: 0.25 mM NADH, 50 mM phosphate pH 8, 25 °C, apparent, residue 11 contradictory: V11K, A2 is the extra cloning Ala
T3 construct: full length, codon-optimized, expressed in E. coli BL21(DE3) from pET-28b, extra Ala after start Met, C-terminal thrombin site and His tag (kept), homodimer of 75 kDa

[4] = biological target: T4, Hgdh (Acidaminococcus fermentans, UniProt D2RJU7, V11K/V11M/A206V/A214D/K307I, form not given); conditions: 0.25 mM NADH, 50 mM phosphate pH 8, 25 °C, apparent, residue 11 contradictory: V11K, A2 is the extra cloning Ala
T4 construct: full length, codon-optimized, expressed in E. coli BL21(DE3) from pET-28b, extra Ala after start Met, C-terminal thrombin site and His tag (kept), homodimer of 75 kDa
T4 sequence (D2RJU7 whole entry, stated change not applied): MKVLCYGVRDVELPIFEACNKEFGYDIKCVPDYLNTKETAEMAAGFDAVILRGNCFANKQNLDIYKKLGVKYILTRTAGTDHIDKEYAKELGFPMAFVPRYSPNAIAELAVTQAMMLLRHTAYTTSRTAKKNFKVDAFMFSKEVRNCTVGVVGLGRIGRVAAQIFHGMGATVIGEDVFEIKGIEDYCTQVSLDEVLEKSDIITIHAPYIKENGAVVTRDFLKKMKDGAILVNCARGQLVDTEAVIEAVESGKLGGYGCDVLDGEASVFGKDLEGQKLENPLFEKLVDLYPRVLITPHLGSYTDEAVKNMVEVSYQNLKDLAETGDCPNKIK

T3 sequence (D2RJU7 whole entry, stated change not applied): as above
T1 sequence (D2RJU7 whole entry): as the sequence (D2RJU7 whole entry, stated change not applied) above
T2 sequence (D2RJU7 whole entry, stated change not applied): as above

Km [1]: 2.96 ± 0.24 mM
Km [2]: 4.18 ± 0.2 mM
Km [3]: 9.72 ± 0.67 mM
Km [4]: 3.05 ± 0.24 mM
SMILES: O=C(O)CCCC(=O)C(=O)O [2-oxoadipate]

From publication PMC9396657, “Directed Evolution of (R)-2-Hydroxyglutarate Dehydrogenase Improves 2-Oxoadipate Reduction by 2 Orders of Magnitude” (ACS Synthetic Biology, 2022)
